Experiment: xn = mol fraction of the nth substance listed
Conditions: 298.15 K, 101 kPa

CCOS(=O)(=O)[O-].CC[n+]1ccn(C)c1 + CCO
Conditions | speed of sound [m/s] | viscosity [mPa·s]
x2 = 0.1271 | 1657 | 65.5
x2 = 0.1281 | 1655 | 66.1
x2 = 0.2039 | 1636 | 49.8
x2 = 0.3088 | 1603 | 34.69
x2 = 0.3256 | 1598 | 32.21
x2 = 0.3598 | 1586 | 28.75
x2 = 0.4147 | 1566 | 22.88
x2 = 0.4336 | 1558 | 21.39
x2 = 0.4604 | 1545 | 18.98
x2 = 0.5103 | 1525 | 15.4
x2 = 0.5223 | 1516 | 14.78
x2 = 0.5724 | 1490 | 11.74
x2 = 0.5926 | 1480 | 10.83
x2 = 0.5951 | 1467 | 10.65
x2 = 0.712 | 1407 | 6.13
x2 = 0.7174 | 1406 | 5.98
x2 = 0.7676 | 1369 | 4.68
x2 = 0.806 | 1339 | 3.86
x2 = 0.8666 | 1286 | 2.709
x2 = 0.9026 | 1253 | 2.189
x2 = 0.9062 | 1248 | 2.138
x2 = 0.9504 | 1202 | 1.628
x2 = 0.9522 | 1200 | 1.589

From a compilation of properties of binary mixtures (doi:10.1021/je060126x)
